Test results from patent US10604554B2, “Double-acylated GLP-1 derivatives” (Novo Nordisk A/S, priority 2012, dated 2020).
Like-named read-outs stand apart in the source and are kept apart here.

How the values were obtained:
human GLP-1 receptor [1] = biological target: T1, human GLP-1 receptor (Homo sapiens, UniProt P43220); test: GLP-1 receptor binding (SPA, displacement of 125I-GLP-1)
T1 construct: expressed in transfected cells; host or cells: BHK cells, clone FCW467-12A/KZ10-1 (parent line BHKTS13), further transfected with CRE luciferase
In short: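 Membranes from a stably transfected hamster cell line, 5-10 ug protein/sample, with WGA SPA beads and [125I]-GLP-1(7-36)NH2 at 0.06 nM final. Incubated 120 min at 30 °C with shaking, then counted.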

human GLP-1 receptor [2] = biological target: T1, human GLP-1 receptor; test: In vitro potency (CRE luciferase; whole cells); format: cell-based; set-up: EC50/pM (ratio 1% HSA/0% HSA): unit not given here; conditions: for EC50: BHK cells; for EC50/pM (ratio 1% HSA/0% HSA): ratio of EC50 at 1% HSA to EC50 at 0% HSA
In short: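 Stably transfected BHK cells carrying human GLP-1R and a CRE–firefly luciferase reporter, 5×10^3 cells/well in assay medium, run with 0% or 1% HSA in assay buffer.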

[3] = 0.001% HSA (low albumin), read-out: Receptor binding affinity IC50 (low HSA)
[4] = In vitro potency (CRE luciferase) EC50 (1% HSA), 1% HSA
[5] = 0% HSA, read-out: In vitro potency (CRE luciferase) EC50 (0% HSA)

T1 sequence (P43220 24-463): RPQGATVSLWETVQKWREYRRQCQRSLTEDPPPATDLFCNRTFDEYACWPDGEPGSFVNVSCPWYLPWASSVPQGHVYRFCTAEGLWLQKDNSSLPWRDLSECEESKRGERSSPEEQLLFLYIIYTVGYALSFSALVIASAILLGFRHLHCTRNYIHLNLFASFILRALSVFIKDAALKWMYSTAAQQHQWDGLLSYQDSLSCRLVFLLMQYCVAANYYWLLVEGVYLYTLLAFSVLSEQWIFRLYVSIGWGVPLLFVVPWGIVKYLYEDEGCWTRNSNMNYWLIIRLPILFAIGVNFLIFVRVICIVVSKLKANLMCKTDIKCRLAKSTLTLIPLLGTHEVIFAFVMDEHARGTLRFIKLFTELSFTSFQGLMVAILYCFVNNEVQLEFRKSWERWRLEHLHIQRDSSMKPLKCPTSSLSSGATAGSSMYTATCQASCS

## CC[C@H](C)[C@H](NC(=O)[C@H](Cc1ccccc1)NC(=O)[C@H](CCC(=O)O)NC(=O)[C@H](CCCCNC(=O)[C@@H](N)CCCCNC(=O)[C@@H](N)CCCCNC(=O)CC[C@H](NC(=O)CCCCCCCCCCCCC(=O)O)C(=O)O)NC(=O)[C@H](C)NC(=O)[C@H](C)NC(=O)[C@H](CCC(N)=O)NC(=O)CNC(=O)[C@H](CCC(=O)O)NC(=O)[C@H](CC(C)C)NC(=O)[C@H](Cc1ccc(O)cc1)NC(=O)[C@H](CO)NC(=O)[C@H](CO)NC(=O)[C@@H](NC(=O)[C@H](CC(=O)O)NC(=O)[C@H](CO)NC(=O)[C@@H](NC(=O)[C@H](Cc1ccccc1)NC(=O)[C@@H](NC(=O)CNC(=O)[C@H](CCC(=O)O)NC(=O)C(C)(C)NC(=O)[C@@H](N)Cc1c[nH]cn1)[C@@H](C)O)[C@@H](C)O)C(C)C)C(=O)N[C@@H](C)C(=O)N[C@@H](Cc1c[nH]c2ccccc12)C(=O)N[C@@H](CC(C)C)C(=O)N[C@H](C(=O)N[C@@H](CCCNC(=N)N)C(=O)NCC(=O)N[C@@H](CCCNC(=N)N)C(=O)N[C@@H](CCCCNC(=O)[C@@H](N)CCCCNC(=O)[C@@H](N)CCCCNC(=O)CC[C@H](NC(=O)CCCCCCCCCCCCC(=O)O)C(=O)O)C(=O)O)C(C)C [Example 2, N^ε26-[(2S)-2-amino-6-[[(2S)-2-amino-6-[[(4S)-4-carboxy-4-(13-carboxytridecanoylamino)butanoyl]amino]hexanoyl]amino]hexanoyl], N^ε37-[(2S)-2-amino-6-[[(2S)-2-amino-6-[[(4S)-4-carboxy-4-(13-carboxytridecanoylamino)butanoyl]amino]hexanoyl]amino]hexanoyl]-[Aib^8,Arg^34,Lys^37]-GLP-1-(7-37)-peptide]
Human GLP-1 receptor [1]; [3]
  IC50: 240 pM
Human GLP-1 receptor [1]; 2.0% HSA (high albumin), read-out: Receptor binding affinity IC50 (high HSA)
  IC50: 29000 pM
Human GLP-1 receptor [2]; [4]
  EC50: 59 pM

## CC[C@H](C)[C@H](NC(=O)[C@H](Cc1ccccc1)NC(=O)[C@H](CCC(=O)O)NC(=O)[C@H](CCCCNC(=O)[C@@H](N)CCCCNC(=O)[C@@H](N)CCCCNC(=O)CC[C@H](NC(=O)CCCCCCCCCCCCCCCCC(=O)O)C(=O)O)NC(=O)[C@H](C)NC(=O)[C@H](C)NC(=O)[C@H](CCC(N)=O)NC(=O)CNC(=O)[C@H](CCC(=O)O)NC(=O)[C@H](CC(C)C)NC(=O)[C@H](Cc1ccc(O)cc1)NC(=O)[C@H](CO)NC(=O)[C@H](CO)NC(=O)[C@@H](NC(=O)[C@H](CC(=O)O)NC(=O)[C@H](CO)NC(=O)[C@@H](NC(=O)[C@H](Cc1ccccc1)NC(=O)[C@@H](NC(=O)CNC(=O)[C@H](CCC(=O)O)NC(=O)C(C)(C)NC(=O)[C@@H](N)Cc1c[nH]cn1)[C@@H](C)O)[C@@H](C)O)C(C)C)C(=O)N[C@@H](C)C(=O)N[C@@H](Cc1c[nH]c2ccccc12)C(=O)N[C@@H](CC(C)C)C(=O)N[C@H](C(=O)N[C@@H](CCCNC(=N)N)C(=O)NCC(=O)N[C@@H](CCCNC(=N)N)C(=O)N[C@@H](CCCCNC(=O)[C@@H](N)CCCCNC(=O)[C@@H](N)CCCCNC(=O)CC[C@H](NC(=O)CCCCCCCCCCCCCCCCC(=O)O)C(=O)O)C(=O)O)C(C)C [Example 27, N^ε26-[(2S)-2-amino-6-[[(2S)-2-amino-6-[[(4S)-4-carboxy-4-(17-carboxyheptadecanoylamino)butanoyl]amino]hexanoyl]amino]hexanoyl], N^ε37-[(2S)-2-amino-6-[[(2S)-2-amino-6-[[(4S)-4-carboxy-4-(17-carboxyheptadecanoylamino)butanoyl]amino]hexanoyl]amino]hexanoyl]-[Aib^8,Arg^34,Lys^37]-GLP-1-(7-37)-peptide]
Human GLP-1 receptor [1]; [3]
  IC50: 250 pM
Human GLP-1 receptor [1]; Receptor binding affinity IC50 (high HSA), 2.0% HSA (high albumin), heading: Receptor binding affinity IC50
  IC50 (high HSA): 689000 pM
Human GLP-1 receptor [2]; [5]
  EC50: 22 pM
Human GLP-1 receptor [2]; [4]
  EC50: 6190 pM
Human GLP-1 receptor [2]
  EC50/pM (ratio 1% HSA/0% HSA): 276

## CC[C@H](C)[C@H](NC(=O)[C@H](Cc1ccccc1)NC(=O)[C@H](CCC(=O)O)NC(=O)[C@H](CCCCNC(=O)[C@@H](N)CCCCNC(=O)[C@@H](N)CCCCNC(=O)CC[C@H](NC(=O)CCCCCCCCCCOc1ccc(C(=O)O)cc1)C(=O)O)NC(=O)[C@H](C)NC(=O)[C@H](C)NC(=O)[C@H](CCC(N)=O)NC(=O)CNC(=O)[C@H](CCC(=O)O)NC(=O)[C@H](CC(C)C)NC(=O)[C@H](Cc1ccc(O)cc1)NC(=O)[C@H](CO)NC(=O)[C@H](CO)NC(=O)[C@@H](NC(=O)[C@H](CC(=O)O)NC(=O)[C@H](CO)NC(=O)[C@@H](NC(=O)[C@H](Cc1ccccc1)NC(=O)[C@@H](NC(=O)CNC(=O)[C@H](CCC(=O)O)NC(=O)C(C)(C)NC(=O)[C@@H](N)Cc1c[nH]cn1)[C@@H](C)O)[C@@H](C)O)C(C)C)C(=O)N[C@@H](C)C(=O)N[C@@H](Cc1c[nH]c2ccccc12)C(=O)N[C@@H](CC(C)C)C(=O)N[C@H](C(=O)N[C@@H](CCCNC(=N)N)C(=O)NCC(=O)N[C@@H](CCCNC(=N)N)C(=O)N[C@@H](CCCCNC(=O)[C@@H](N)CCCCNC(=O)[C@@H](N)CCCCNC(=O)CC[C@H](NC(=O)CCCCCCCCCCOc1ccc(C(=O)O)cc1)C(=O)O)C(=O)O)C(C)C [Example 20, N^ε26-[(2S)-2-amino-6-[[(2S)-2-amino-6-[[(4S)-4-carboxy-4-[11-(4-carboxyphenoxy)undecanoylamino]butanoyl]amino]hexanoyl]amino]hexanoyl], N^ε37-[(2S)-2-amino-6-[[(2S)-2-amino-6-[[(4S)-4-carboxy-4-[11-(4-carboxyphenoxy)undecanoylamino]butanoyl]amino]hexanoyl]amino]hexanoyl]-[Aib^8,Arg^34,Lys^37]-GLP-1-(7-37)-peptide]
Human GLP-1 receptor [1]; Receptor binding affinity IC50 (high HSA), 2.0% HSA (high albumin)
  IC50: 48000 pM
Human GLP-1 receptor [1]; Receptor binding affinity IC50 (low HSA), 0.001% HSA (low albumin)
  IC50: 130 pM
Human GLP-1 receptor [2]; In vitro potency (CRE luciferase) EC50 (0% HSA), 0% HSA
  EC50: 4.9 pM
Human GLP-1 receptor [2]; [4]
  EC50: 63 pM
Human GLP-1 receptor [2]
  EC50/pM (ratio 1% HSA/0% HSA): 13

## CC[C@H](C)[C@H](NC(=O)[C@H](Cc1ccccc1)NC(=O)[C@H](CCC(=O)O)NC(=O)[C@H](CCCCNC(=O)[C@@H](N)CCCCNC(=O)COCCOCCNC(=O)COCCOCCNC(=O)CC[C@H](NC(=O)CCCCCCCCCCCCCCC(=O)O)C(=O)O)NC(=O)[C@H](C)NC(=O)[C@H](C)NC(=O)[C@H](CCC(N)=O)NC(=O)CNC(=O)[C@H](CCC(=O)O)NC(=O)[C@H](CC(C)C)NC(=O)[C@H](Cc1ccc(O)cc1)NC(=O)[C@H](CO)NC(=O)[C@H](CO)NC(=O)[C@@H](NC(=O)[C@H](CC(=O)O)NC(=O)[C@H](CO)NC(=O)[C@@H](NC(=O)[C@H](Cc1ccccc1)NC(=O)[C@@H](NC(=O)CNC(=O)[C@H](CCC(=O)O)NC(=O)C(C)(C)NC(=O)[C@@H](N)Cc1c[nH]cn1)[C@@H](C)O)[C@@H](C)O)C(C)C)C(=O)N[C@@H](C)C(=O)N[C@@H](Cc1c[nH]c2ccccc12)C(=O)N[C@@H](CC(C)C)C(=O)N[C@H](C(=O)N[C@@H](CCCNC(=N)N)C(=O)NCC(=O)N[C@@H](CCCNC(=N)N)C(=O)N[C@@H](CCCCNC(=O)[C@@H](N)CCCCNC(=O)COCCOCCNC(=O)COCCOCCNC(=O)CC[C@H](NC(=O)CCCCCCCCCCCCCCC(=O)O)C(=O)O)C(=O)O)C(C)C [Example 10, N^ε26-[(2S)-2-amino-6-[[2-[2-[2-[[2-[2-[2-[[(4S)-4-carboxy-4-(15-carboxypentadecanoylamino)butanoyl]amino]ethoxy]ethoxy]acetyl]amino]ethoxy]ethoxy]acetyl]amino]hexanoyl], N^ε37-[(2S)-2-amino-6-[[2-[2-[2-[[2-[2-[2-[[(4S)-4-carboxy-4-(15-carboxypentadecanoylamino)butanoyl]amino]ethoxy]ethoxy]acetyl]amino]ethoxy]ethoxy]acetyl]amino]hexanoyl]-[Aib^8,Arg^34,Lys^37]-GLP-1-(7-37)-peptide]
Human GLP-1 receptor [1]; [3]
  IC50: 840 pM
Human GLP-1 receptor [2]; [5]
  EC50: 8 pM
Human GLP-1 receptor [2]; [4]
  EC50: 3630 pM
